From patent US4921847A, “Trihalo(amine)gold(III) anti-tumor complexes” (Engelhard Corporation, priority 1989, dated 1990)

Experiments:
S180 ascites = experiment: Anti-tumor evaluation against S180 ascites in mice (% increase in life span, survivors); type: in vivo, female CFW Swiss mice; conditions: for peak ILS values / % ILS / Survivors / Anti-tumor activity (in words): S 180 ascites; for Survivors: day of evaluation; for Anti-tumor activity (in words): 50% ILS criterion
Procedure: The above prepared compounds were evaluated against S180 ascites in female CFW Swiss mice. The mice were weighed (average weight: 20 g), placed into cages (six mice to a cage) and on day zero the mice were inoculated with 0.2 ml of a freshly prepared saline suspension (0.15 M NaCl) containing 1×10^7 tumor cells/ml or a total of 2×10^6 cells. This inoculum was freshly prepared using "transfer" mice which had been injected with tumor cells the previous week; it was obtained via the following steps: (1) the removal of cells from the peritoneal cavity of the sacrificed transfer mouse, (2) alternate centrifugation and washing operations (2-3 times with cold saline) to remove blood and other components, and (3) dilution of the volume of the packed cell with saline (1:3). A final centrifugation was carried out at 1000 RPM over a two minute period. A cell count was made on a 2,000-fold dilution of this 1:3 suspension by means of a Coulter Counter. A final dilution to 1×10^7 cells/ml was made based on the average count.
On day 1, solutions of the test compounds were prepared and each mouse in a set of six were injected with the same test compound at the same dosage. The doses were based on the average weight of the animals (cage weight). Also, beginning on day 1 two controls were employed containing six mice per control:
(1) Normal Control: This consisted solely of the carrier or diluent used in combination with the test compound; and
(2) Positive Control: This consisted solely of the known anti-tumor agent cis-[Pt(NH3)2 Cl2 ] (Cisplatin) in saline (8 mg/kg) to test the response of the biological system.
The effectiveness of a test compound was measured in terms of the % increase in life span (%ILS) of the test mice relative to the Normal Control (Calculated from the day of tumor inoculation, i.e., day zero). To standardize the test data and permit intercomparisons, the day of evaluation was arbitrarily taken as that day corresponding to twice the mean life span (or average day of death) of the control. This established a practical upper limit of 100% on the %ILS attainable. For calculation purposes the survivors on the day of evaluation were considered to have died on that day. The %ILS was calculated as follows: [formula] ILS values in excess of 50% were interpreted as being indicative of anti-tumor activity, whereas, values in excess of 75% indicated excellent activity.
The products of Examples 1, 4, 10 and 11 were administered in a freshly prepared 1% sodium bicarbonate solution; the remaining test compounds were administered as slurries in 0.5% "Klucel" (hydroxypropylcellulose).

Solubility = type: physicochemical
Sarcoma 180 tumors = experiment: Therapeutic index (LD50/ED90), implanted Sarcoma 180 tumors; type: in vivo, Swiss white mice; set-up: ED90: unit not given here; conditions: for Therapeutic Index: LD50/ED90; for Maximum % ILS (Dosage): S 180 ascites; for ED90: dose giving 50% increase in life span for 90% of the animals, determined graphically

Row | SMILES | peak ILS values (S180 ascites) | % ILS (S180 ascites; 10 mg/kg) | Survivors (S180 ascites; 10 mg/kg) | % ILS (S180 ascites; 20 mg/kg) | Survivors (S180 ascites; 20 mg/kg) | % ILS (S180 ascites; 40 mg/kg) | Survivors (S180 ascites; 40 mg/kg) | % ILS (S180 ascites; 80 mg/kg) | Survivors (S180 ascites; 80 mg/kg) | % ILS (S180 ascites; 160 mg/kg) | Survivors (S180 ascites; 160 mg/kg) | % ILS (S180 ascites; 320 mg/kg) | Survivors (S180 ascites; 320 mg/kg) | solubility in 1% sodium bicarbonate solution (Solubility) | Therapeutic Index (Sarcoma 180 tumors) | ED90 (Sarcoma 180 tumors) | Maximum % ILS (Dosage) (Sarcoma 180 tumors; 40 mg/kg) | Maximum % ILS (Dosage) (Sarcoma 180 tumors; 20 mg/kg) | further results
1 | O=C(O)c1ccc[n+]([Au-]([Cl])([Cl])[Cl])c1 [Example 1, Trichloro(Nicotinic Acid)Gold(III)] | > 90% | -3% | 0 of 6 | 60% | 3 of 6 | 91% | 3 of 6 | 98% | 4 of 6 | 1% | 0 of 6 | -69% | 0 of 6 | 12.8 mg/mL | 5.8 | 31 | – | – | Maximum % ILS (Dosage) (Sarcoma 180 tumors; 80 mg/kg): 98%
2 | OCc1ccc[n+]([Au-]([Cl])([Cl])[Cl])c1 [Example 6] | – | 6% | 0 of 6 | 63% | 1 of 6 | 85% | 3 of 6 | 46% | 0 of 6 | -70% | 0 of 6 | -93% | 0 of 6 | – | 2.1 | 43 | 85% | – | –
3 | [Cl][Au]([Cl])[Cl].c1ccncc1 [Example 7, trichloro(pyridine)gold(III)] | – | 45% | 3 of 6 | 71% | 2 of 6 | 66% | 3 of 6 | -6% | 2 of 6 | -94% | 0 of 6 | -94% | 0 of 6 | – | – | 35 | – | 71% | –
4 | CC(=O)c1ccc[n+]([Au-]([Cl])([Cl])[Cl])c1 [Example 3, trichloro(3-acetylpyridine)gold(III)] | > 90% | -5% | 0 of 6 | 42% | 1 of 6 | 97% | 5 of 6 | 66% | 4 of 6 | 23% | 0 of 6 | -90% | 0 of 6 | – | 4.5 | 31 | 97% | – | –
5 | O=C(O)Cc1ccc[n+]([Au-]([Br])([Br])[Br])c1 [Example 11, tribromo(3-pyridylacetic acid)gold(III)] | – | -16% | 0 of 6 | 20% | 0 of 6 | 10% | 0 of 6 | 31% | 1 of 6 | -21% | 0 of 6 | -92% | 0 of 6 | 12.8 mg/mL | – | – | – | – | Anti-tumor activity (in words) (S180 ascites): considered to be inactive; Anti-tumor activity (in words) (S180 ascites; listed as tribromo(3-pyridylacetic acid)gold(III)): inactive as an anti-tumor agent; % ILS against criterion for anti-tumor activity (S180 ascites; failed to meet the 50% ILS criterion): < 50%
6 | Cn1cc[n+]([Au-]([Br])([Br])[Br])c1 [Example 9, Tribromo(N-Methylimidazole)Gold(III)] | – | 5% | 0 of 6 | 76% | 4 of 6 | 66% | 3 of 6 | -1% | 1 of 6 | -94% | 0 of 6 | -94% | 0 of 6 | – | 2.0 | 42 | – | 76% | –
